In patent publication US12364689B2, “Dosage regimen for the treatment of cancer” (AstraZeneca AB, priority 2020, dated 2025):

Legend:
Format in all cases: in vivo, human
[1] = tested on: ER signalling pathway / Ki67; experiment: Phase 1 clinical trial: pharmacodynamic biomarkers in paired tumour biopsies
Excerpt: Pharmacodynamics: Pharmacodynamic measurements will be made on a number of biomarkers (e.g., optional tumour biopsies, plasma ctDNA, CTC, and archival tumour tissue). Biological samples (archival tumour tissue, mandatory and optional biopsies where applicable) will be collected for the analysis of tumour DNA as an exploratory objective in this study. A 2-mL blood sample for DNA isolation will be collected prior to administration of the first dose of AZD9833 from subjects who have consented to participate in the genetic analysis component of this study. If for any reason the sample is not drawn prior to dosing, it may be taken at any visit until the last study visit. Only one sample for genetic research should be collected per subject during the study. Participation is optional.
In Part A, paired tumour biopsy samples will be taken from at least 2 subjects at each dose level. In Part B, these biopsies will be taken from at least 5 post-menopausal subjects at each AZD9833 dose level, 300 mg, 150 mg and 75 mg and at least 5 from pre-menopausal subjects at 300 mg. If subjects are willing to participate in this part of the study, they will sign a biopsy-specific written informed consent. Paired tumour biopsies will be obtained from subjects with accessible tumours who have consented to biopsies. […]

[2] = tested on: ER positive, HER2 negative advanced breast cancer; experiment: Phase 1 dose-escalation and expansion clinical trial: anti-tumour activity by RECIST 1.1; settings: for ORR (%) objective response rate: responders/evaluable (percent)
Excerpt: “Objective response rate” is the percentage of patients with measurable disease at baseline and who have a date of first dose of >17 weeks or a date of post-treatment scan of >15 weeks that indicates a confirmed response as measured by the RECIST criteria. “Clinical benefit rate” is the percentage of patients who have a date of first dose of ≥25 weeks or a date of post-treatment scan of >23 weeks that indicates a confirmed response or stable disease as measured by the RECIST criteria for >23 weeks post treatment. Introduction: To determine the optimal dosing regimen for AZD9833 Phase 1 dose-escalation and expansion in patients with ER positive, HER2 negative advanced breast cancer was carried out according to the following basic protocol. Overall Design: This is a multicentre dose escalation and expansion, first-in-human study designed to evaluate the safety and tolerability of AZD9833 alone (Parts A and B) in women with endocrine-resistant ER+HER2-breast cancer that is not amenable to treatment with curative intent. Efficacy Assessment: Anti-tumour activity will be evaluated using RECIST 1.1 by investigator assessments. Baseline tumour assessments should encompass all areas of known predilection for metastases in the disease under evaluation and should additionally investigate areas that may be involved based on signs and symptoms of individual subjects. Baseline assessments should be performed no more than 28 days before the start of AZD9833, ideally, as close as possible to the start of AZD9833. The methods of assessment used at baseline should be used at each subsequent assessment during treatment and follow-up part of the study. Any other sites at which new disease is suspected should also be appropriately imaged. If an unscheduled assessment is performed and the subject has not progressed, every attempt should be made to perform subsequent assessments at the scheduled visits while the subject remains on AZD9833 or until they have progressed. Categorisation of objective tumour response assessment will be based on the RECIST 1.1 guidelines for response: complete response (CR), partial response (PR), stable disease (SD), and progression of disease (PD). For subjects who only have non-measurable disease at baseline, categorisation of objective tumour response assessment will be based on the RECIST 1.1 guidelines for response for non-target lesions (NTLs): CR, PD, and non-CR/non PD. If the investigator is unsure whether progression has occurred, particularly with response to NTLs or the appearance of a new lesion, it is advisable to continue AZD9833 and reassess the subject's status at the next scheduled assessment, or sooner if clinically indicated. To achieve ‘unequivocal progression’ on the basis of non-target disease, there must be an overall level of substantial worsening in non-target disease such that, even in presence of SD or PR in the target disease, the overall tumour burden has increased sufficiently to merit discontinuation of therapy. A modest increase in the size of one or more NTLs is usually not sufficient to qualify for unequivocal disease progression status. A clinical trial according to the above protocol was carried out using 60 patients.

[3] = Phase 1 clinical trial: pharmacokinetics of AZD9833 in plasma
Excerpt: The “median terminal half-life” is the median time for a patient's drug blood plasma concentration to halve after reaching pseudo-equilibrium.
Pharmacokinetics: The characterisation of the pharmacokinetics of single and multiple doses of AZD9833 is a secondary objective of this study. Any residual sample remaining after PK analysis has been performed may be used to identify, characterise, and establish the concentration of AZD9833 metabolites and drug-related products in plasma, and/or to conduct exploratory biomarker research. Analysis of AZD9833 in plasma and urine will be performed using appropriate bioanalytical methods. Full details of the analytical methods used will be described in separate bioanalytical reports.
All samples within the known stability of the analytes of interest at the time of receipt by the bioanalytical laboratory will be analysed. In addition, the PK samples may be subjected to further analyses to identify, characterise, and establish the concentration of metabolites in plasma. Any results from such analyses will be reported separately from the clinical study report. Incurred sample reproducibility analysis, if any, will be performed with the bioanalysis of the test samples. The results from the evaluation will not be reported in the clinical study report but, separately, in a bioanalytical report. […]

In the case of `C[C@@H]1Cc2c(ccc3[nH]ncc23)[C@@H](c2ccc(NC3CN(CCCF)C3)cn2)N1CC(F)(F)F` [AZD9833, N-(1-(3-fluoropropyl)azetidin-3-yl)-6-((6S,8R)-8-methyl-7-(2,2,2-trifluoroethyl)-6,7,8,9-tetrahydro-3H-pyrazolo[4,3-f]isoquinolin-6-yl) pyridin-3-amine], the “ER signalling pathway modulation” value ([1]; all dose cohorts) is reported as “observed in all dose cohorts”, the “reduction in Ki67” value ([1]; patients where clinical responses occurred and paired biopsies obtained) is reported as 98% and the “CBR (%) clinical benefit rate at 24 weeks” value ([2]; 25 mg QD oral (n = 12)) is reported as 4/12 (33.3) %. The “ORR (%) objective response rate” value ([2]; 25 mg QD oral (n = 12)) was 1/9 (11.1) %, the “CBR (%) clinical benefit rate at 24 weeks” value ([2]; 75 mg QD oral (n = 12)) was 8/12 (66.7) % and the “ORR (%) objective response rate” value ([2]; 75 mg QD oral (n = 12)) was 1/7 (14.3) %. For the same compound, the “CBR (%) clinical benefit rate at 24 weeks” value ([2]; 150 mg QD oral (n = 13)) was 4/13 (30.8) %, the “ORR (%) objective response rate” value ([2]; 150 mg QD oral (n = 13)) was 2/11 (18.2) % and the “CBR (%) clinical benefit rate at 24 weeks” value ([2]; 300 mg QD oral (n = 13)) was 3/11 (27.3) %. The “ORR (%) objective response rate” value ([2]; 300 mg QD oral (n = 13)) was 2/10 (20.0) %, the “CBR (%) clinical benefit rate at 24 weeks” value ([2]; 450 mg QD oral (n = 10)) was 3/4 (75.0) % and the “ORR (%) objective response rate” value ([2]; 450 mg QD oral (n = 10)) was 1/6 (16.7) %. The “CBR (%) clinical benefit rate at 24 weeks” value ([2]; Total, all doses (n = 60)) was 22/52 (42.3) %, the “ORR (%) objective response rate” value ([2]; Total, all doses (n = 60)) was 7/43 (16.3) % and the “Evidence of clinical benefit and target engagement” value ([2]; women with ER+ ABC, incl. pre-treated with CDK4/6 inhibitors and fulvestrant, and ESR1 mutations) was “observed at all dose levels”. For the same compound, the “AZD9833 exposure versus dose” value ([3]; after multiple doses) was “dose proportional” and the half-life ([3]; human, plasma, patients, oral QD dosing, across five doses, read-out: median terminal t1/2 (converted)) was 12 h.
